The record followed here is ChEMBL document CHEMBL3507680, “University of Dundee, Gates Library screen for HepG2 cell viability”.

The nature of this data set: Human HepG2 cell viability assay in 384 well format. It counts as toxicity, cell-based. The arrangement: dose 125 nL, time 70.5 hour; cytotoxicity at 70.5 h: concentration not given beside the values. The settings on record: HepG2 cells, read-out: Inhibition.

For the compound `CC(=O)N1CCCCC1c1nc(N)ncc1-c1ccccc1` (centres undefined), the cytotoxicity at 70.5 h is -24.9%. With `O=C(c1ccncc1)N1CCC(c2nc(O)cc(-c3ccncc3)n2)C1` (centres undefined) the figure was -12.6%. On to `CC(=O)N1CCC(c2ccnc(Nc3cncnc3)n2)C1` (centres undefined), for which the cytotoxicity at 70.5 h was -32.6%. Then `CC(=O)N1CCCC1c1cccc(Cc2ccc(F)cc2)n1` (centres undefined), with -14.3%.

With `CC(=O)N1CCC(C(=O)c2cc(C)cnc2N)CC1`, the cytotoxicity at 70.5 h is -15.5%. Then `Cc1nc(Nc2ncccn2)cc(C2CCCN2CC(C)C)n1` (centres undefined), with 43.1%; and `CN(C)C(=O)CN1CCCCC1c1nc(N)ncc1-c1ccccc1` (centres undefined), with -17.6%; and `CC(C)n1c(C2CCCN(Cc3ccnn3C)C2)nc2ccccc21` (centres undefined), with -9.99%. Take `Cc1n[nH]cc1C(=O)N1CCCC(n2nnc3cc(F)ccc32)C1` (centres undefined): the cytotoxicity at 70.5 h is -12.2%.

Consider `Cn1cc(CN2CCc3nc(-c4ccccn4)nc(O)c3C2)cn1`, for which the cytotoxicity at 70.5 h came to 22.4%.

`CCn1ncc(CN2CCc3c(nc(-c4cccnc4)[nH]c3=O)C2)c1C`: the cytotoxicity at 70.5 h was -18.3%.

Turning to `Cc1nn(C)c(C)c1-c1cncc(C2CCN(S(C)(=O)=O)CC2)n1`, the cytotoxicity at 70.5 h is -19.6%. Take `CC(=O)N1CCCC(c2cnc(-c3c(C)nn(C)c3C)cn2)C1` (centres undefined): the cytotoxicity at 70.5 h is -20.6%.

Consider `CC(C)n1cc(C(=O)N2Cc3ccccc3OC3(CCOCC3)C2)cn1`, for which the cytotoxicity at 70.5 h turned out to be 23.6%. Consider `OC1(Cn2ccc3ccncc32)CCN(Cc2ccccn2)CC1`, for which the cytotoxicity at 70.5 h is -2.48%. Regarding `O=C(c1cccnc1)N1CCCC(c2cc(C(F)F)n3ncnc3n2)C1` (centres undefined), the cytotoxicity at 70.5 h was -13.8%. For the compound `c1cnc(-c2cnc(N3CCSCC3)nc2C2CCCO2)cn1` (centres undefined), the cytotoxicity at 70.5 h is -16.8%.

For `Cc1ccc(S(=O)(=O)N2C[C@@H]3C[C@@H](NC(=O)C(C)(C)C)[C@@H]3C2)cc1`, the cytotoxicity at 70.5 h was -16.5%. For the compound `O=C(c1cnco1)N1C[C@@H]2CC[C@H](Oc3cccc(F)c3)[C@@H]2C1`, the cytotoxicity at 70.5 h is -3.26%. Regarding `Cc1ncc(CNC(=O)CCc2cccc(F)c2)c(C2CCCN2C)n1` (centres undefined), the cytotoxicity at 70.5 h is -2.51%.

As to `O=C(Cc1ccc(F)cc1)N1CCCCC1c1ccn2ccnc2n1` (centres undefined), the cytotoxicity at 70.5 h was -12%. With `Cc1nccc(C2CN(Cc3cc[nH]n3)CCO2)n1` (centres undefined) the figure was -15.2%; with `CC(=O)N1CCN([C@@H]2CC[C@@H](NC(=O)c3cncc(C)c3)[C@H]2O)CC1`, 24%. With `CC(=O)N1CCCC1c1ccc(-c2c(C)noc2C)cn1` (centres undefined), the cytotoxicity at 70.5 h is -9.29%. `CNC(=O)CCc1cc(C)nc(C2CCCN2)n1` (centres undefined): the cytotoxicity at 70.5 h is -12.5%. For the compound `Cc1noc(C)c1-c1cccc(CC2CCN(C(=O)CCC(=O)O)C2)n1` (centres undefined), the cytotoxicity at 70.5 h was -11.7%. In the case of `CCn1cc(CN2CC3CCCN3C[C@H]2C)c(C)n1` (some centres undefined), the cytotoxicity at 70.5 h worked out at 2.28%. `CNC(=O)C1(CCCc2cccnc2)CCCCN1` (centres undefined): the cytotoxicity at 70.5 h was -1.91%. In the case of `Cc1ccccc1-c1cncc(C2CCN(C(=O)CN(C)C)CC2)n1`, the cytotoxicity at 70.5 h stood at 23.3%. With `COCC(=O)N1CCC(c2cccc(Cc3ccc(F)cc3)n2)CC1`, the cytotoxicity at 70.5 h was -6.39%. Regarding `CN(CCOCC1CC1)C(=O)Nc1ccc(C#N)c(Cl)c1`, the cytotoxicity at 70.5 h is -0.0375%. Turning to `COC(=O)c1ccc(CN2CCC(c3n[nH]c(C)n3)CC2)s1`, the cytotoxicity at 70.5 h is -0.468%.

On to `CC(C)(C)n1ncc(NCCc2ccccc2C(F)(F)F)c(Cl)c1=O`, for which the cytotoxicity at 70.5 h was found to be 33%.

Consider `CCOCC(=O)Nc1cc(-c2cccc(F)c2F)n[nH]1`, for which the cytotoxicity at 70.5 h is -7.88%.

Consider `CC(C)(C)n1ncc(NCC(O)c2ccc(F)c(F)c2)c(Cl)c1=O` (centres undefined), for which the cytotoxicity at 70.5 h was -0.243%. `O=C1CC(C(=O)NCc2ccccc2Oc2ccccc2F)CCN1` (centres undefined): the cytotoxicity at 70.5 h was -1.83%. Then `CC(C)OCc1ccccc1CNC(=O)C(C)(C)C`, with 0.195%; and `CN(CCOCC1CC1)C(=O)Nc1ccc([S+](C)[O-])c(F)c1` (centres undefined), with 21.5%; and `CN(CCOCC1CC1)C(=O)Nc1ccc([S+](C)[O-])cc1` (centres undefined), with -0.588%. Take `COc1cccc(C(=O)NS(=O)(=O)c2cc(Cl)sc2Cl)c1OC(F)F`: the cytotoxicity at 70.5 h was -7.95%. For the compound `N#CC1(NC(=O)COC(=O)Cc2cc(Cl)c3c(c2)OCCO3)CCCC1`, the cytotoxicity at 70.5 h was 16.4%.

For the compound `CC(=O)Nc1ccc(CNCC(O)c2ccc(Cl)cc2)cc1` (centres undefined), the cytotoxicity at 70.5 h is -5.19%. On to `CC(=O)Nc1ccc(CNCC(O)c2ccc(C)cc2)cc1` (centres undefined), for which the cytotoxicity at 70.5 h was -8.81%. Consider `CC(Nc1cccc(F)c1C#N)c1cccc(S(N)(=O)=O)c1` (centres undefined), for which the cytotoxicity at 70.5 h was -8.67%.

As for `COCCCN1Cc2cccc(NC(=O)c3ccccc3Cl)c2C1`, the cytotoxicity at 70.5 h is 12.9%. For the compound `Cc1nc(C)c(C(C)NCc2c(C(C)C)nn(C)c2N(C)C)s1` (centres undefined), the cytotoxicity at 70.5 h was -0.665%. With `N#CC1(NC(=O)Cc2cc(Cl)c3c(c2)OCCO3)CCC1`, the cytotoxicity at 70.5 h was -10.5%. Then `CN(Cc1ccccn1)C(=O)C(c1ccccc1)N1CCSCC1` (centres undefined), with -7.59%; and `COCCCOc1ccc(C(=O)N(C)Cc2cccc(O)c2)cn1`, with -8.37%; and `COCCCN(C)c1cc(C(F)(F)F)nc(-c2cccnc2)n1`, with -5.74%.

Regarding `COc1cccc(C2(C(=O)NC3CCc4nccn4C3)CCCC2)c1` (centres undefined), the cytotoxicity at 70.5 h came out at 10.9%. Turning to `CN(Cc1cscn1)C(=O)C(c1ccccc1)N1CCSCC1` (centres undefined), the cytotoxicity at 70.5 h came to 21.5%.

With `NS(=O)(=O)CCCNC(=O)c1cnc(-c2ccsc2)s1`, the cytotoxicity at 70.5 h is -6.58%. Take `CC(Nc1ccc(C#N)cc1F)c1cccc(S(N)(=O)=O)c1` (centres undefined): the cytotoxicity at 70.5 h came to 16.2%. Consider `Cc1ccc(F)c(S(=O)(=O)NCCc2nnc[nH]2)c1`, for which the cytotoxicity at 70.5 h was found to be 15.4%. For the compound `COc1cc(NC(=O)NCc2nccn2C)ccc1Br`, the cytotoxicity at 70.5 h is -4.24%. Then `O=C(O)c1cc(/C=C/c2cccc3ccccc23)ncn1`, with -7.2%; and `CC(O)CN(C)c1cc(C(F)(F)F)nc(-c2cccnc2)n1` (centres undefined), with -3.49%; and `CCN(CC)S(=O)(=O)c1ccc(CNC(=O)N2CCC(C#N)CC2)cc1`, with -6.61%. With `Cc1cnn(CCNCc2c(C(C)C)nn(C)c2Cl)c1`, the cytotoxicity at 70.5 h was -2.72%. Take `COc1ccc(C)cc1CN1CCn2cccc2C1C` (centres undefined): the cytotoxicity at 70.5 h is -1.19%. Consider `COc1c(CNC(C)c2sc(C)nc2C)c(C(C)C)nn1C` (centres undefined), for which the cytotoxicity at 70.5 h was found to be 23.8%. On to `COc1ccc(C(C)CCNC2CCN(c3ccccn3)CC2)cc1` (centres undefined), for which the cytotoxicity at 70.5 h worked out at 22%. With `COCC1CCCN(c2cncc(OCc3ccccc3)n2)C1` (centres undefined) the figure was 6.39%. In the case of `Cc1cc(CNS(=O)(=O)CCCC#N)ccc1N(C)C`, the cytotoxicity at 70.5 h was 0.915%.

Consider `c1csc(N2CCN(c3ncnc4sccc34)CC2)n1`, for which the cytotoxicity at 70.5 h was -7.71%. For `COc1cc(C(=O)O)ccc1OCC(=O)NCCc1ccccc1`, the cytotoxicity at 70.5 h is -2.71%. On to `CCCN(CC(=O)NC)C(=O)c1ccc(-c2nc(C)cs2)cc1`, for which the cytotoxicity at 70.5 h is -10.1%. As for `CC(=O)N1CCC(NC(=O)CN2CCCc3c(F)ccc(C)c32)CC1`, the cytotoxicity at 70.5 h was -4.42%.

Turning to `Cc1cc(C)n(C2CN(CCC(N)=O)C2)n1`, the cytotoxicity at 70.5 h was determined as 0.833%. Regarding `COc1ccsc1C(=O)NC1CCN(c2cccc(F)c2)CC1`, the cytotoxicity at 70.5 h stood at 21.7%. Take `CCCn1cc(NC(=O)Nc2ccc(F)c(C(=O)NC)c2)cn1`: the cytotoxicity at 70.5 h was -4.76%. With `COc1ncnc(N)c1CNCCc1ccc(-n2cccn2)cc1` the figure was -1.5%. Then `NC(=O)CC1CCN(c2cncc(OCc3ccccc3)n2)CC1`, with -5.14%; and `NC(=O)CC1CCCN(c2cncc(SCc3ccccc3)n2)C1` (centres undefined), with -1.35%.

With `CN(C)c1nc(CNC(=O)Nc2cccc([S+](C)[O-])c2)cs1` (centres undefined), the cytotoxicity at 70.5 h is -5.56%. For the compound `CCN(CC(=O)N(C)C)C(=O)c1ccc(-c2nc(C)cs2)cc1`, the cytotoxicity at 70.5 h was -4.36%. For `CCc1nnc(C(C)N2CCN(CCC(=O)NC3CC3)CC2)o1` (centres undefined), the cytotoxicity at 70.5 h came to 22%. For the compound `Cc1c(C(=O)N2CCCN(S(C)(=O)=O)CC2)cnn1C`, the cytotoxicity at 70.5 h was -3.33%. Regarding `FC(F)(F)c1csc(N2CCN(Cc3ccccn3)CC2)n1`, the cytotoxicity at 70.5 h was -6.63%. For the compound `CC(O)CN1CCN(Cc2coc(-c3ccccc3)n2)CC1` (centres undefined), the cytotoxicity at 70.5 h is -7.79%. On to `CCN(CC(=O)NC(C)C)C(=O)c1csc(Cc2ccccc2)n1`, for which the cytotoxicity at 70.5 h is -9.03%.

Regarding `NC(=O)[C@@H]1Cc2ccccc2CN1CCC(=O)N1CCOCC1`, the cytotoxicity at 70.5 h is -5.31%. Take `OC(CNCCn1cccn1)COc1cccc(C(F)(F)F)c1` (centres undefined): the cytotoxicity at 70.5 h was -1.44%. With `OC(CNCCn1cccn1)COc1ccc2ccccc2c1` (centres undefined), the cytotoxicity at 70.5 h is -0.315%. In the case of `OC(CNCCn1cccn1)COc1ccc(F)cc1` (centres undefined), the cytotoxicity at 70.5 h worked out at 5.18%. Turning to `CNCC(=O)N1CC(c2cc(Nc3ncccn3)nc(C)n2)C1`, the cytotoxicity at 70.5 h was -20.3%.

Take `c1cnc2c(c1)cc([C@H]1CCCO1)n2CCN1CCCCC1`: the cytotoxicity at 70.5 h was found to be 20.3%. For the compound `OC1(Cn2ccc3ncccc32)CCN(Cc2ccccn2)CC1`, the cytotoxicity at 70.5 h came out at 24.4%. Then `COc1ccccc1C(=O)N1Cc2cc(C)ccc2OCC1CN(C)C` (centres undefined), with -8.39%; and `OC1CCN(Cc2c(C3CCCNC3)[nH]c3ncccc23)CC1` (centres undefined), with -22.4%; and `CC(C)C(=O)N1CCCC(c2cc(C(F)F)n3ncnc3n2)C1` (centres undefined), with 23.9%. With `c1cnc2c(c1)cc([C@H]1CCCO1)n2CCN1CCOCC1`, the cytotoxicity at 70.5 h was -27.8%.

For `COc1ccc(CN(Cc2cncn2C)CC2CCCO2)c(OC)c1` (centres undefined), the cytotoxicity at 70.5 h was 4.29%. `Cc1cc(C[C@@H]2CCC[C@H]2NCc2cc(C)c(O)c(C)c2)on1`: the cytotoxicity at 70.5 h was determined as 2.36%. On to `CCc1ccc(CN(CCCn2ccnc2)Cc2ccc(C)s2)o1`, for which the cytotoxicity at 70.5 h is 21.1%. As for `Cc1cccc(CN(Cc2ccc(C)o2)C2CC(C)(C)NC(C)(C)C2)n1`, the cytotoxicity at 70.5 h was -9.61%. On to `Cc1ccc([C@]2(O)CC[C@H]3CN(Cc4cc(C)c(O)c(C)c4)C[C@H]32)nc1`, for which the cytotoxicity at 70.5 h stood at 30.6%. As for `O[C@]1(c2ccccn2)CC[C@@H]2CN(Cc3cccc4ncccc34)C[C@@H]21`, the cytotoxicity at 70.5 h stood at 15.3%.
